# Data: US9822058B2 (CHDI FOUNDATION, INC., priority 2012, dated 2017)
# Biological target: T1, KMO mouse enzyme (Mus musculus, UniProt Q91WN4)
# T1 construct: KMO enzyme prepared at Evotec from mouse liver (4-6 weeks old) via mitochondria isolation; from tissue; host or cells: mouse liver (4-6 weeks old), isolated mitochondria, prepared at Evotec
# Assay: KMO mouse enzyme assay: L-Kynurenine hydroxylation to 3-Hydroxy-Kynurenine by LC/MS (protocols substantially similar to Example 33)
# Type: biochemical
# Details: compound at 30 µM; KMO enzyme from mouse liver mitochondria; 100 μM L-Kynurenine; 40 min at RT
# Procedure: A method of monitoring L-Kynurenine (KYN) hydroxylation to form 3-Hydroxy-Kynurenine (3OH-KYN) by LC/MS is described. Product is quantified by multiple reaction monitoring (MRM method). […]
# Using the assay protocols substantially similar to those of Example 33, the following compounds were tested.
# T1 sequence (Q91WN4 whole entry): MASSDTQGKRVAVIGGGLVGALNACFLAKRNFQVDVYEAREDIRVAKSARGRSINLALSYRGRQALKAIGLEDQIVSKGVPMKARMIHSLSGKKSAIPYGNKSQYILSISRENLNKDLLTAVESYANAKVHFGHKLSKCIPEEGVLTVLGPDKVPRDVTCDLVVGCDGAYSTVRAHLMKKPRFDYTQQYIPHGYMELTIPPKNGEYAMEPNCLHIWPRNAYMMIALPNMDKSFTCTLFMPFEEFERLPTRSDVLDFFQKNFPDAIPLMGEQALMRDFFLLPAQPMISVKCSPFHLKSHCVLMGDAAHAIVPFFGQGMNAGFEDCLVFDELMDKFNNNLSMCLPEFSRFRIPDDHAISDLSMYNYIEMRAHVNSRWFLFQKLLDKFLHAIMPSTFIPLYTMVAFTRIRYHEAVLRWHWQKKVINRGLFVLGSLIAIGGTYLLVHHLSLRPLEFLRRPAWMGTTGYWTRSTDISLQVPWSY
inhibition at 30 µM,% Inhibition at 30 µM,Compound
88%,–,"O=C(O)[C@H]1C[C@@H]1C(=O)c1ccc(F)c(F)c1 [(1S,2S)-2-[(3,4-Difluorophenyl)carbonyl]cyclopropane-1-carboxylic acid]"
94%,–,"O=C(NCCO)[C@H]1C[C@@H]1C(=O)c1ccc(Cl)c(Cl)c1 [(1S,2S)-2-[(3,4-dichlorophenyl)carbonyl]-N-(2-hydroxyethyl)cyclopropane-1-carboxamide]"
103%,–,"O=C(O)[C@H]1C[C@@H]1C(=O)c1cc(Cl)cc(Cl)c1 [(1S,2S)-2-[(3,5-Dichlorophenyl)carbonyl]cyclopropane-1-carboxylic acid]"
101%,–,"O=C(O)[C@H]1C[C@@H]1C(=O)c1ccc(OC2CC2)c(Cl)c1 [(1S,2S)-2-[(3-Chloro-4-cyclopropoxyphenyl)carbonyl]cyclopropane-1-carboxylic acid]"
100%,–,"Cc1ccc(C(=O)[C@H]2C[C@@H]2C(=O)O)cc1Cl [(1S,2S)-2-[(3-Chloro-4-methylphenyl)carbonyl]cyclopropane-1-carboxylic acid]"
105%,–,"O=C(O)[C@H]1C[C@@H]1C(=O)c1cccc(Cl)c1 [(1S,2S)-2-[(3-Chlorophenyl)carbonyl]cyclopropane-1-carboxylic acid]"
42%,–,"NC(=O)[C@H]1C[C@@H]1C(=O)c1ccc(OC2CC2)c(Cl)c1 [(1S,2S)-2-[(3-chloro-4-cyclopropoxyphenyl)carbonyl]cyclopropane-1-carboxamide]"
103%,–,"O=C(O)[C@H]1C[C@@H]1C(=O)c1ccc(Cl)c(F)c1 [(1S,2S)-2-[(4-Chloro-3-fluorophenyl)carbonyl]cyclopropane-1-carboxylic acid]"
98%,–,"CC(C)Oc1ccc(C(=O)[C@H]2C[C@@H]2C(=O)O)cc1Cl [(1S,2S)-2-{[3-Chloro-4-(propan-2-yloxy)phenyl]carbonyl}cyclopropane-1-carboxylic acid]"
102%,–,"O=C(O)[C@H]1C[C@@H]1C(=O)c1ccc(C(F)(F)F)c(Cl)c1 [(1S,2S)-2-{[3-Chloro-4-(trifluoromethyl)phenyl]carbonyl}cyclopropane-1-carboxylic acid]"
15.4%,–,"CC1(C)[C@@H](C(=O)O)[C@@H]1C(=O)c1ccc(Cl)c(Cl)c1 [(1S,3S)-3-(3,4-dichlorobenzoyl)-2,2-dimethylcyclopropane-1-carboxylic acid]"
–,98%,"N[C@@H](CCCCNC(=O)[C@H]1C[C@@H]1C(=O)c1ccc(Cl)c(Cl)c1)C(=O)O [(2S)-2-Amino-6-{[(1S,2S)-2-[(3,4-dichlorophenyl)carbonyl]cyclopropyl]formamide}hexanoic acid]"
–,99%,"C[N+](C)(C)CC(CC(=O)O)OC(=O)[C@H]1C[C@@H]1C(=O)c1ccc(Cl)c(Cl)c1 (stereo partly drawn) [(3-Carboxy-2-{[(1S,2S)-2-[(3,4-dichlorophenyl)carbonyl]cyclopropyl]carbonyloxy}propyl)trimethylazanium]"
101%,–,"CCCCOC(=O)[C@H]1C[C@@H]1C(=O)c1ccc(Cl)c(Cl)c1 [Butyl (1S,2S)-2-[(3,4-Dichlorophenyl)carbonyl]cyclopropane-1-carboxylate]"
104%,–,"COC(=O)[C@H]1C[C@@H]1C(=O)c1cc(Cl)cc(Cl)c1 [Methyl (1S,2S)-2-[(3,5-dichlorophenyl)carbonyl]cyclopropane-1-carboxylate]"
101%,–,"CC(C)OC(=O)[C@H]1C[C@@H]1C(=O)c1ccc(Cl)c(Cl)c1 [Propan-2-yl (1S,2S)-2-[(3,4-dichlorophenyl)carbonyl]cyclopropane-1-carboxylate]"
102%,–,"O=C(O)[C@H]1C[C@@H]1C(=O)c1ccc(F)c(Cl)c1 [Sodium (1S,2S)-2-[(3-chloro-4-fluorophenyl)carbonyl]cyclopropane-1-carboxylate]"
–,100%,"Cc1ccc(C(=O)[C@H]2C[C@@H]2C(=O)[O-])cc1Cl.[Na+] [Sodium (1S,2S)-2-[(3-chloro-4-methylphenyl)carbonyl]cyclopropane-1-carboxylate]"
–,102%,"CC(C)Oc1ccc(C(=O)[C@H]2C[C@@H]2C(=O)[O-])cc1Cl.[Na+] [Sodium (1S,2S)-2-{[3-chloro-4-(propan-2-yloxy)phenyl]carbonyl}cyclopropane-1-carboxylate]"
–,102%,"O=C([O-])[C@H]1C[C@@H]1C(=O)c1ccc(C(F)(F)F)c(Cl)c1.[Na+] [Sodium (1S,2S)-2-{[3-chloro-4-(trifluoromethyl)phenyl]carbonyl}cyclopropane-1-carboxylate]"

# Further lines, the compound ahead of its results:
Compound,inhibition at 30 µM,% Inhibition at 30 µM
"C[C@H]1[C@@H](C(=O)O)[C@@H]1C(=O)c1ccc(Cl)c(Cl)c1 (single isomer, unassigned)",101%,–
"C[C@@H]1[C@@H](C(=O)O)[C@@H]1C(=O)c1ccc(Cl)c(Cl)c1 (single isomer, unassigned)",96.7%,–
"C[C@H]1[C@H](C(=O)O)[C@H]1C(=O)c1ccc(Cl)c(Cl)c1 (single isomer, unassigned)",101%,–
"C[C@@H]1[C@H](C(=O)O)[C@H]1C(=O)c1ccc(Cl)c(Cl)c1 (single isomer, unassigned)",52.5%,–
"O=C(c1ccc(Cl)c(Cl)c1)C1CC12CCOC2=O (stereo not drawn) [1-[(3,4-dichlorophenyl)carbonyl]-5-oxaspiro[2.4]heptan-4-one]",38%,–
"CCOC(=O)OC(C)OC(=O)[C@H]1C[C@@H]1C(=O)c1ccc(Cl)c(Cl)c1 (stereo partly drawn) [1-[(Ethoxycarbonyl)oxy]ethyl (1S,2S)-2-[(3,4-dichlorophenyl)carbonyl]cyclopropane-1-carboxylate]",102%,–
"CC(=O)OC(C)OC(=O)[C@H]1C[C@@H]1C(=O)c1ccc(Cl)c(Cl)c1 (stereo partly drawn) [1-{[(1S,2S)-2-[(3,4-Dichlorophenyl)carbonyl]cyclopropyl]carbonyloxy}ethyl acetate]",103%,–
"CC(OC(=O)[C@H]1C[C@@H]1C(=O)c1ccc(Cl)c(Cl)c1)OC(=O)[C@H]1C[C@@H]1C(=O)c1ccc(Cl)c(Cl)c1 [1-{[(1S,2S)-2-[(3,4-dichlorophenyl)carbonyl]cyclopropyl]carbonyloxy}ethyl (1S,2S)-2-[(3,4-dichlorophenyl)carbonyl]cyclopropane-1-carboxylate]",98%,–
"CC(C)OC(=O)OC(C)OC(=O)[C@H]1C[C@@H]1C(=O)c1ccc(Cl)c(Cl)c1 (stereo partly drawn) [1-{[(Propan-2-yloxy)carbonyl]oxy}ethyl (1S,2S)-2-[(3,4-dichlorophenyl)carbonyl]cyclopropane-1-carboxylate]",103%,–
"CCN(CC)CCOC(=O)[C@H]1C[C@@H]1C(=O)c1ccc(Cl)c(Cl)c1 [2-(Diethylamino)ethyl (1S,2S)-2-[(3,4-dichlorophenyl)carbonyl]cyclopropane-1-carboxylate]",102%,–
"O=C(OCCO)[C@H]1C[C@@H]1C(=O)c1ccc(Cl)c(Cl)c1 [2-Hydroxyethyl (1S,2S)-2-[(3,4-dichlorophenyl)carbonyl]cyclopropane-1-carboxylate]",102%,–
"CC(C)COC(=O)[C@H]1C[C@@H]1C(=O)c1ccc(Cl)c(Cl)c1 [2-Methylpropyl (1S,2S)-2-[(3,4-dichlorophenyl)carbonyl]cyclopropane-1-carboxylate]",101%,–
"O=C(c1ccc(Cl)c(Cl)c1)[C@H]1C[C@@H]1c1noc(=O)[nH]1 [3-[(1S,2S)-2-[(3,4-Dichlorophenyl)carbonyl]cyclopropyl]-4,5-dihydro-1,2,4-oxadiazol-5-one]",101%,–
"O=C(c1ccc(F)c(Cl)c1)[C@H]1C[C@@H]1c1noc(=O)[nH]1 [3-[(1S,2S)-2-[(3-Chloro-4-fluorophenyl)carbonyl]cyclopropyl]-4,5-dihydro-1,2,4-oxadiazol-5-one]",101%,–
"CC(C)(C)c1ccc(OC(=O)[C@H]2C[C@@H]2C(=O)c2ccc(Cl)c(Cl)c2)cc1 [4-tert-Butylphenyl (1S,2S)-2-[(3,4-dichlorophenyl)carbonyl]cyclopropane-1-carboxylate]",101%,–
"O=C1CN(C(=O)[C@H]2C[C@@H]2C(=O)c2ccc(Cl)c(Cl)c2)CCN1 [4-{[(1S,2S)-2-[(3,4-Dichlorophenyl)carbonyl]cyclopropyl]carbonyl}piperazin-2-one]",33%,–
"O=C(c1ccc(Cl)c(Cl)c1)[C@H]1C[C@@H]1c1nnn[nH]1 [5-[(1S,2S)-2-[(3,4-Dichlorophenyl)carbonyl]cyclopropyl]-1H-1,2,3,4-tetrazole]",101%,–
"CC1(C)[C@H](C(=O)O)[C@H]1C(=O)c1ccc(Cl)c(Cl)c1 [(1R,3R)-3-(3,4-dichlorobenzoyl)-2,2-dimethylcyclopropane-1-carboxylic acid]",54%,–
O=C(c1ccc(F)c(Cl)c1)C1C[C@@H]1C(=O)O (stereo partly drawn) [(1S)-2-[(3-Chloro-4-fluorophenyl)carbonyl]cyclopropane-1-carboxylic acid],68%,–
"C[C@]1(C(=O)O)C[C@@H]1C(=O)c1ccc(Cl)c(Cl)c1 [(1S,2S)-2-(3,4-dichlorobenzoyl)-1-methylcyclopropane-1-carboxylic acid]",98.6%,–
"O=C(Nc1ccccc1)[C@H]1C[C@@H]1C(=O)c1ccc(Cl)c(Cl)c1 [(1S,2S)-2-[(3,4-Dichlorophenyl)carbonyl]-N-phenylcyclopropane-1-carboxamide]",86%,–
"N#C[C@H]1C[C@@H]1C(=O)c1ccc(Cl)c(Cl)c1 [(1S,2S)-2-[(3,4-Dichlorophenyl)carbonyl]cyclopropane-1-carbonitrile]",68%,–
"O=C(O)[C@H]1C[C@@H]1C(=O)c1ccc(Cl)c(Cl)c1 [(1S,2S)-2-[(3,4-Dichlorophenyl)carbonyl]cyclopropane-1-carboxylic acid]",106%,–
"O=C(O)[C@H]1N[C@@H]1C(=O)c1ccc(Cl)c(Cl)c1 [(2S,3S)-3-[(3,4-Dichlorophenyl)carbonyl]aziridine-2-carboxylic acid]",101%,–

# Same assay, conditions: compound at 30 µM; KMO enzyme from mouse liver mitochondria; 100 μM L-Kynurenine; 40 min at RT; listed as 1S,2S)-2-(3-chloro-4-cyclopropoxybenzoyl)cyclopropane-1-carboxylic acid
row,% Inhibition at 30 µM,Compound
1,100.5%,"O=C(O)[C@H]1C[C@@H]1C(=O)c1ccc(OC2CC2)c(Cl)c1 [(1S,2S)-2-[(3-Chloro-4-cyclopropoxyphenyl)carbonyl]cyclopropane-1-carboxylic acid]"
